Blank lines part the entries; values can stand above or below the compound they belong to.
Columns and labels:
[1] = biological target: Hepatocyte growth factor receptor (Homo sapiens, UniProt P08581); test: Selectivity interaction (Kinase panel (33PanQinase(R) Activity Assay)) EUB0000877a MET
[2] = biological target: T1, Protein kinase C epsilon type (Homo sapiens) (UniProt Q02156); test: Selectivity interaction (KinomeScan (DiscoverX)) EUB0000607a PRKCE; conditions: at 10 µM
T1 sequence (whole entry): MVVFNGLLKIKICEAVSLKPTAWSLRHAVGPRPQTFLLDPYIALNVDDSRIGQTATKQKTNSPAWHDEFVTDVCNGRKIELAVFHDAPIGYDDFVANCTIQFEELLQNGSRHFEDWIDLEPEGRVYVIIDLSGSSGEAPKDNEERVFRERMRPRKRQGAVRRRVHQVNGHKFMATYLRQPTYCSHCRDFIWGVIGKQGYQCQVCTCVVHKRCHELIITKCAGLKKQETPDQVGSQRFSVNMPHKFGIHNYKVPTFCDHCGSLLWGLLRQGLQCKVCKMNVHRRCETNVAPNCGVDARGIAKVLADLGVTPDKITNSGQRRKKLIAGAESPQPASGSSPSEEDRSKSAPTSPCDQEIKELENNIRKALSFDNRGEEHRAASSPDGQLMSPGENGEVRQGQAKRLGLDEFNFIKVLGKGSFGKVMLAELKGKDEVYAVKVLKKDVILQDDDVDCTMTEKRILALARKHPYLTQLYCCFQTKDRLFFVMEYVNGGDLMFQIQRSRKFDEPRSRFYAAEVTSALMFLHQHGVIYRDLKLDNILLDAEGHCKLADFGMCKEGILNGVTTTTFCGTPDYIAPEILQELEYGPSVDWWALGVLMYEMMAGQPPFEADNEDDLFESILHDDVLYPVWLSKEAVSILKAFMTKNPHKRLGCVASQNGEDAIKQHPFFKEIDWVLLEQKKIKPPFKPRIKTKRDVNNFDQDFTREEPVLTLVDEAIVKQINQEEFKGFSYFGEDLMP

[3] = biological target: T2, Tyrosine-protein kinase Tec (Homo sapiens) (UniProt P42680); test: Selectivity interaction (ActivX KiNativ screen (kinase selectivity in THP-1 cell lysates)) EUB0000639a TEC; assay type: subcellular; conditions: lysate, at 0.01 µM
T2 sequence (whole entry): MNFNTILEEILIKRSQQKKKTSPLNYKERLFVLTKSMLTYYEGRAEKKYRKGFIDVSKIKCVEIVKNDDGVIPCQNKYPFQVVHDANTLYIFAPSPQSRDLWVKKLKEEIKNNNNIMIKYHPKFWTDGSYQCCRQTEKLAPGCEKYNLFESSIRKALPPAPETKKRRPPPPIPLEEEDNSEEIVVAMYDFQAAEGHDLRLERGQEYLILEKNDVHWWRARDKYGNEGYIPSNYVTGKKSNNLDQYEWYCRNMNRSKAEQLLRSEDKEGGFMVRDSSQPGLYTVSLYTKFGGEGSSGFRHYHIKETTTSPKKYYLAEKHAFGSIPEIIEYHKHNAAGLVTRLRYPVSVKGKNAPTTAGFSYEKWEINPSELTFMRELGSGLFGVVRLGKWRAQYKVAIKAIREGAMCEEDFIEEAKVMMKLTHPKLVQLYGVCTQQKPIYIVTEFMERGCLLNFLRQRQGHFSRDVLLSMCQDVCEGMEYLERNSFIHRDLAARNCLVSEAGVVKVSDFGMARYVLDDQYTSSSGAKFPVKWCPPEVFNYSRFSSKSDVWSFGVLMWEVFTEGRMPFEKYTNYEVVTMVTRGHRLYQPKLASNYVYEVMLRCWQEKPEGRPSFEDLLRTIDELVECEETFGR

[4] = biological target: Protein kinase C alpha type (Homo sapiens, UniProt P17252); test: Selectivity interaction (ProQinase) EUB0000171b PRKCA
[5] = biological target: 5-hydroxytryptamine receptor 2B (Homo sapiens, UniProt P41595); test: Selectivity interaction (Panel of non-epigenetic targets (kinases, GPCRs, ion channels, and transporters, Eurofins) ) EUB0000271b HTR2B; conditions: at 1 µM
5-hydroxytryptamine receptor 2B, sequence (P41595 whole entry): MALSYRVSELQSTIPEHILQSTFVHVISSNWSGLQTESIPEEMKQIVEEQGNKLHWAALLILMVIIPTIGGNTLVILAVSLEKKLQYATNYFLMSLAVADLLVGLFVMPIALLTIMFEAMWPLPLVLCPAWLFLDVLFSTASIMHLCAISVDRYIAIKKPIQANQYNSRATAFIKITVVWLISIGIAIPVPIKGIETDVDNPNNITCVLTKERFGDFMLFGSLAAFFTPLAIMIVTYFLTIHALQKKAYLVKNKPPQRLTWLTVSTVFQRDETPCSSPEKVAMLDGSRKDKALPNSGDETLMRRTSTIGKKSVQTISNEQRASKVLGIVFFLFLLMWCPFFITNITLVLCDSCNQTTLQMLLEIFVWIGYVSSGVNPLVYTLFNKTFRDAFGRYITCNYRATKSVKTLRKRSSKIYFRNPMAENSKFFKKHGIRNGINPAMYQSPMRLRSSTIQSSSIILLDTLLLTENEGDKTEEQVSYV

[6] = biological target: Ribosomal protein S6 kinase beta-1 (Homo sapiens, UniProt P23443); test: Selectivity interaction (Millipore kinase profiler) EUB0000124b RPS6KB1; conditions: at 10 µM
Ribosomal protein S6 kinase beta-1, sequence (P23443 whole entry, looked up): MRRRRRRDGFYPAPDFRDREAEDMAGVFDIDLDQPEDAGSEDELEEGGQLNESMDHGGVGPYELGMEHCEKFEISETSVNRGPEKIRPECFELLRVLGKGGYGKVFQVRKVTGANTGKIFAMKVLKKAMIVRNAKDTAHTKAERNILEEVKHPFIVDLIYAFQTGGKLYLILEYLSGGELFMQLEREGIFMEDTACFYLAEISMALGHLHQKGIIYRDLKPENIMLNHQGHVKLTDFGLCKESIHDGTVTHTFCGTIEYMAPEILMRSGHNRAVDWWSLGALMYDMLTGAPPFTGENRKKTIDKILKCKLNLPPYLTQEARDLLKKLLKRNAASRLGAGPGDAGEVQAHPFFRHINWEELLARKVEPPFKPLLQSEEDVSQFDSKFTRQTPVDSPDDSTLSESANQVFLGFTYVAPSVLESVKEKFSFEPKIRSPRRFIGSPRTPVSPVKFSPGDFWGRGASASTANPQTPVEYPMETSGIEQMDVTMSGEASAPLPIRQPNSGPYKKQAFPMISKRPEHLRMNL

[7] = biological target: Dual specificity mitogen-activated protein kinase kinase 1 (Homo sapiens, UniProt Q02750); test: Selectivity interaction (Kinase panel (DSF assay)) EUB0001558a MAP2K1
Dual specificity mitogen-activated protein kinase kinase 1, sequence (Q02750 whole entry): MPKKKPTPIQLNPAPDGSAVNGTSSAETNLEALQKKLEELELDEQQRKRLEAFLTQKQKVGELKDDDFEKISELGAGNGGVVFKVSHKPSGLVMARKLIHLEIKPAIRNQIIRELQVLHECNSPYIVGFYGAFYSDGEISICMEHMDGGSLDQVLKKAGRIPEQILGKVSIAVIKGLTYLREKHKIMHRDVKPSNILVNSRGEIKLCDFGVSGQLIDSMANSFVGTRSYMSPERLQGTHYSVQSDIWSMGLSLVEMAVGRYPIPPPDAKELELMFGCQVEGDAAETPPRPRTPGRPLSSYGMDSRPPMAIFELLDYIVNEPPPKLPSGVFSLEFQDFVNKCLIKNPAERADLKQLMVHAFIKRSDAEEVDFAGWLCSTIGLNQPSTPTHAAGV

[8] = biological target: Serine/threonine-protein kinase 26 (Homo sapiens, UniProt Q9P289); test: Selectivity interaction (Kinase panel (KiNativ target engagement assay in Jurkat cells)) EUB0001635a STK26; assay type: cell-based; conditions: Selectivity number of off-targets 0.0, Selectivity number of targets 233.0, Source Knowledge https://www.sciencedirect.com/science/article/pii/S2451945619300674?via%3Dihub, at 1 µM
Serine/threonine-protein kinase 26, sequence (Q9P289 2-416 limits assumed): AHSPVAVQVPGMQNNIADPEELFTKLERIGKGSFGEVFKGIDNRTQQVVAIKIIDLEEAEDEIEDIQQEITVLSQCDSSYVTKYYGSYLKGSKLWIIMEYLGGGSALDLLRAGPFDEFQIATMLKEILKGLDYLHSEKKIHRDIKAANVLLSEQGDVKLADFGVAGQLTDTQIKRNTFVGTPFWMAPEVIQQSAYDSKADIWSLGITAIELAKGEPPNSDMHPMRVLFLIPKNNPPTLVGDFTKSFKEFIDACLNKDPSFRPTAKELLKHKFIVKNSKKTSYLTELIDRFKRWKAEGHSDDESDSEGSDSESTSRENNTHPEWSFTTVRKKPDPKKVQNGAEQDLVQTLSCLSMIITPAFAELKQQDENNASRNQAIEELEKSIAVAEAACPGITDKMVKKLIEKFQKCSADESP

[9] = biological target: T3, Cyclin-dependent kinase 11A (Homo sapiens) (UniProt Q9UQ88); test: Selectivity interaction (KinomeScan (DiscoverX)) EUB0000618a CDK11A; conditions: at 10 µM
T3 sequence (whole entry): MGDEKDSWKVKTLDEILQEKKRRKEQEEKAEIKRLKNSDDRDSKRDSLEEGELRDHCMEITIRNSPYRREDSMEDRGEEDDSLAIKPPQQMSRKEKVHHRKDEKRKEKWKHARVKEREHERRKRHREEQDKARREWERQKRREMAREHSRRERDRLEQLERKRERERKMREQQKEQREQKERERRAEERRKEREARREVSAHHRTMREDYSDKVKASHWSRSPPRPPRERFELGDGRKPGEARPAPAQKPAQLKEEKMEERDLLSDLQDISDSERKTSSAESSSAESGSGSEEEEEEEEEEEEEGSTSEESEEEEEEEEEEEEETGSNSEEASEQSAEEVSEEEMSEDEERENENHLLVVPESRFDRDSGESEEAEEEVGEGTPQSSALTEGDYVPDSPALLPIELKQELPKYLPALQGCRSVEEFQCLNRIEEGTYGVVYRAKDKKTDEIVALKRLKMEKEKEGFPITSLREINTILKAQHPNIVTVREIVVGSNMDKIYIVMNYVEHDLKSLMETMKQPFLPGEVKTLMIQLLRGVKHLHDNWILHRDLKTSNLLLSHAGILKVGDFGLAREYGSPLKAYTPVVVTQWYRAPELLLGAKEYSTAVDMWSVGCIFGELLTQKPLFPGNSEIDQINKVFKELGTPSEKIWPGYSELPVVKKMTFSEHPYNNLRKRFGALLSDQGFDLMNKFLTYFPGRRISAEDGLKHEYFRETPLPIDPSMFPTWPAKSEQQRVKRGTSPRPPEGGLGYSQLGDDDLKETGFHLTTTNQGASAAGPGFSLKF

Hepatocyte growth factor receptor, sequence (P08581 whole entry): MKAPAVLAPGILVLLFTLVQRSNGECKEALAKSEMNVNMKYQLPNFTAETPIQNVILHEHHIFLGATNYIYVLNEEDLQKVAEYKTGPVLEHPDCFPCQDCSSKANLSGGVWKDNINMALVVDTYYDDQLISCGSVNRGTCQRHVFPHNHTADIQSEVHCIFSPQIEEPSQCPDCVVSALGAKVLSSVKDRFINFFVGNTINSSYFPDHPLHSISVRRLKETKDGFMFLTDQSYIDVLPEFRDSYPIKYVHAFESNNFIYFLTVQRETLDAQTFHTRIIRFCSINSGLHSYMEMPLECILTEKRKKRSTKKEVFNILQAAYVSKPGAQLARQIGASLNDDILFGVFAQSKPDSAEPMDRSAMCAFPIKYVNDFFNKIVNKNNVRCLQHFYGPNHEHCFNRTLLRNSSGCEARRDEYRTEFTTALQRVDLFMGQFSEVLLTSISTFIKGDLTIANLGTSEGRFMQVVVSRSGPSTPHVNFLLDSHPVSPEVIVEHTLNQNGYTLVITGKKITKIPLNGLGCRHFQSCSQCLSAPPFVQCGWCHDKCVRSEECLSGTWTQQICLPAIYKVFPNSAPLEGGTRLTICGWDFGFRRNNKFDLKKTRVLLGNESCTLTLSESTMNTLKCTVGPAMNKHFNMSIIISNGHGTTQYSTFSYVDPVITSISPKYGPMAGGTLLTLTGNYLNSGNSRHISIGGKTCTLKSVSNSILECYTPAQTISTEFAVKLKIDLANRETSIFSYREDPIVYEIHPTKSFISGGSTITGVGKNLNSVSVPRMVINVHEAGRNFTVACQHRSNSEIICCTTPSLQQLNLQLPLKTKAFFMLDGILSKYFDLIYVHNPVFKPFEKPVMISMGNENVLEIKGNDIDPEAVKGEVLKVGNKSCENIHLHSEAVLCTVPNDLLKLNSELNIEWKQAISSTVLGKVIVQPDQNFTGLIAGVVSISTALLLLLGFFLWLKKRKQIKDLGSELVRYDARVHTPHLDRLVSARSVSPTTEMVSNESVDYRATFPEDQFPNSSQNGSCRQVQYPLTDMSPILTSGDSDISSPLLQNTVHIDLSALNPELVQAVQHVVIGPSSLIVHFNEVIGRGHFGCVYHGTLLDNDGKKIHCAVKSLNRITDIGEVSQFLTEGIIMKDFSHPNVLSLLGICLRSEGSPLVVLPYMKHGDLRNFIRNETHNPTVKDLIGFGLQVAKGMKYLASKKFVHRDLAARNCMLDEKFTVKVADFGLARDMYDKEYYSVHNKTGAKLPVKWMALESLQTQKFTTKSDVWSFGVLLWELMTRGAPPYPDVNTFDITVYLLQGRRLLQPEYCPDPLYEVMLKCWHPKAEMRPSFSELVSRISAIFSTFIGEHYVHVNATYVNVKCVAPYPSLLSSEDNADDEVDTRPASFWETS

- IC50 [1]: > 10 µM
Compound: CCC(=O)N1CC[C@H](Nc2ncnc3c2CN(c2cnc(OC)c(C(F)(F)F)c2)CC3)C1 [LENIOLISIB]

Compound: CNC(=O)Nc1ccc(-c2nc(N3CC4CCC(C3)O4)c3cnn(C4CCC5(CC4)OCCO5)c3n2)cc1
- % of control [2]: 100%

- % of inhibition [3]: -72.2%
Compound: CC[C@@H]1[C@H](F)C(=O)N[C@@H]1COc1nccc2cc(C(N)=O)c(OC)cc12 [ZIMLOVISERTIB]

- % of control ([4]; at 1 µM): 102%
- % of control ([4]; at 5 µM): 80%
Compound: C=CC(=O)Nc1cccc(C(=O)Nc2ccc(Nc3cc(-c4[nH]c(SC)nc4C)ccn3)cc2)c1

Compound: Cc1cc(C)cc([C@@H]2c3cc(C)ccc3NC(=O)CN2C(=O)c2ccc(Br)s2)c1
- % of inhibition [5]: 1%

- % of control [6]: 104%
Compound: CC(=O)Nc1cccc(-n2c(=O)n(C3CC3)c(=O)c3c(Nc4ccc(I)cc4F)n(C)c(=O)c(C)c32)c1

Compound: CC(C)(O)[C@H](F)CN1Cc2cc(NC(=O)c3cnn4cccnc34)c(N3CCOCC3)cc2C1=O
- dTM [7]: 1.3 K

Compound: C=CC(=O)Nc1ccc(C(=O)Nc2[nH]nc3c2CN(C(=O)N[C@H](CN(C)C)c2ccccc2)C3(C)C)cc1
- % of engagement [8]: -26.3%

Compound: O[C@H]1CC[C@H](Nc2ncc3nc(Nc4c(F)cc(F)cc4F)n([C@H]4CCOC4)c3n2)CC1
- % of control [9]: 98%

From ChEMBL document CHEMBL5465560, “Selectivity Literature for EUbOPEN Chemogenomic Library” (2024)
